Data set [1] can be described thus: standard LD50 test, intraperitoneal administration to mice. The conditions noted are these: mouse, in vivo, ip, read-out: LD₅₀. Here is the method:
The toxicity of a representative number of compounds of the present invention was determined by using the standard LD₅₀ test.

A further data set has as its system HIV. Briefly: in-vitro anti-HIV assay system as described in Mitsuya et al. Format: cell-based. Particulars: for effective concentration: concentration of the drug at which effects were seen (3µM to 30µM). Here is the method:
The anti-HIV activity of various compounds was tested using an in-vitro assay system as described in H Mitsuya et al; (Proc Natl. Acad.Sci. USA Vol 82 pp 7096-7100, October 1985).
From the information obtained the 50% effective dose (ED₅₀ value) was estimated and the results expressed as active (+) or very active (++).

Some results are limits rather than exact numbers.

In the case of `CC(C)Cn1c(=O)n(C)c(=O)c2nc(-c3ccc(/C=C/C(=O)O)cc3)[nH]c21` [(E)-4-(1,2,3,6-tetrahydro-3-isobutyl-1-methyl-2,6-dioxo-9H-purin-8-yl)cinnamic acid], in data set [1], the LD50 was more than 100 mg/kg. Same read-out and setting: under `CC(C)Cn1c(=O)[nH]c(=O)c2nc(-c3ccc(/C=C/C(=O)O)cc3)[nH]c21` [(E)-4-(1,2,3,6-tetrahydro-3-isobutyl-2,6-dioxo-9H-purin-8-yl)cinnamic acid] stands more than 100 mg/kg. The same measure, in the same setting: to `Cn1c(=O)[nH]c(=O)c2nc(-c3ccc(/C=C/C(=O)O)cc3)[nH]c21` [(E)-4-(1,2,3,6-tetrahydro-3-methyl-2,6-dioxo-9H-purin-8-yl)cinnamic acid] belongs more than 500 mg/kg. Consider `O=C(O)/C=C/c1ccc(-c2nc3c(=O)n(Cc4ccccc4)c(=O)n(Cc4ccccc4)c3[nH]2)cc1` [(E)-4-(1,3-dibenzyl-1,2,3,6-tetrahydro-2,6-dioxo-9H-purin-8-yl)cinnamic acid], for which the effective concentration in the data set with HIV fell in the range of 3 to 15 µM. Also, the anti-HIV activity entry with HIV (statement in words) is “particularly potent”.

As to `CCCCn1c(=O)c2nc(-c3ccc(/C=C/C(=O)O)cc3)[nH]c2n(CCCC)c1=O` [(E)-4-(1,3-dibutyl-1,2,3,6-tetrahydro-2,6-dioxo-9H-purin-8-yl)cinnamic acid], in data set [1], the LD50 was more than 100 mg/kg. The effective concentration in the data set with HIV was 30 µM.

As for `CCCn1c(=O)n(Cc2ccccc2)c(=O)c2nc(-c3ccc(/C=C/C(=O)O)cc3)[nH]c21` [(E)-4-(1-Benzyl-1,2,3,6-tetrahydro-2,6-dioxo-3-propyl-9H-purin-8-yl)cinnamic acid], the effective concentration in the data set with HIV is 30 µM.

As to `CCCn1c(=O)c2nc(-c3ccc(/C=C/C(=O)O)cc3)[nH]c2n(Cc2ccccc2)c1=O` [(E)-4-(3-Benzyl-1,2,3,6-tetrahydro-2,6-dioxo-1-propyl-9H-purin-8-yl)cinnamic acid], in the data set with HIV, the effective concentration stood at 30 µM. As to `Cn1c(=O)c2nc(-c3ccc(/C=C/C(=O)O)cc3)[nH]c2n(Cc2ccccc2)c1=O` [(E)-4-(3-benzyl-1,2,3,6-tetrahydro-1-methyl-2,6-dioxo-9H-purin-8-yl)cinnamic acid], the LD50 in data set [1] was more than 100 mg/kg. As for `CCCCn1c(=O)n(C)c(=O)c2nc(-c3ccc(/C=C/C(=O)O)cc3)[nH]c21` [(E)-4-(3-butyl-1,2,3,6-tetrahydro-1-methyl-2,6-dioxo-9H-purin-8-yl)cinnamic acid], in data set [1], the LD50 is more than 100 mg/kg.

These data come from patent publication EP0243192B1, “Antiviral 8-Phenylxanthines” (THE WELLCOME FOUNDATION LIMITED, priority 1986, dated 1987).
